# Values of other authors, collected in patent US20230406931A1, “Adjuvant Durvalumab in Combination with Chemotherapy for Treatment of Cancer” (ASTRAZENECA AB, priority 2020, published 2023).
# Tests used:
# [1] = durvalumab versus placebo following definitive concurrent chemoradiation, PACIFIC study; cited from earlier work
# [2] = target: PD-L1 (Homo sapiens, UniProt Q9NZQ7); details: in vitro; cited from earlier work
# [3] = test system: xenograft tumor; details: xenograft model, via a T-cell dependent mechanism; cited from earlier work
# Chain of PD-L1 (Q9NZQ7 19-290): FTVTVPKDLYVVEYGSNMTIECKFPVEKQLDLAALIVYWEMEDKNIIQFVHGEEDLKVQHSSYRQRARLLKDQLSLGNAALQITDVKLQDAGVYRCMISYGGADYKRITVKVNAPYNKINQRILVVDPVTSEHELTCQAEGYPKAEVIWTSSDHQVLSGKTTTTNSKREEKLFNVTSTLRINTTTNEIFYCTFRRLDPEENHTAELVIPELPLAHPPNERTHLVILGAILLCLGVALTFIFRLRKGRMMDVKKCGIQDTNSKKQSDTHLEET
substance,measurement,setting,value
durvalumab: antibody that selectively binds PD-L1 and blocks the binding of PD-L1 to the PD-1 and CD80 receptors,overall survival (OS),[1],improved
same,progression-free survival (PFS),[1],improved
same,relief of PD-L1-mediated suppression of human T-cell activation,[2],relieve PD-L1-mediated suppression of human T-cell activation
same,tumor growth,[3],inhibits tumor growth
